Laboratory results reported in BigSolDB 2.1.

CN1COCN(Cc2cnc(Cl)s2)C1=N[N+](=O)[O-]
solubility (mole fraction)
Conditions	278.15 K	283.15 K	288.15 K	293.15 K	298.15 K	303.15 K	308.15 K	313.15 K	318.15 K	323.15 K
in 1,4-dioxane	–	–	0.00242	0.00311	0.00395	0.00496	0.00626	0.00763	0.00958	0.0117
in DMAc	0.0654	0.0728	0.0802	0.0888	0.0976	0.107	0.118	0.129	0.14	0.152
in DMSO	–	–	0.0672	0.0776	0.0885	0.101	0.115	0.13	0.147	0.164
in acetonitrile	0.00675	0.00854	0.0106	0.0131	0.0161	0.0196	0.0238	0.0288	0.0349	0.0414
in water	7.29e-05	9.97e-05	0.000132	0.000182	0.000241	0.000322	0.000418	0.000538	0.000696	0.000885
